Source: patent US20230398130A1, “METHODS AND COMPOSITIONS FOR DIFFERENTIATING STEM CELLS” (Massachusetts Institute of Technology, priority 2020, published 2023)

Key:
[1] = test system: ISC-enriched organoids; experiment: Primary screen, 384-well 2.5-D organoid differentiation (ENR+CD, 6 days): carbachol-induced lysozyme secretion (LYZ.S); format: cell-based, murine; details: primary screen; for Dose.FC.LYZ.S: FC vs plate median; for Z.LYZ.S: standard z score; for SSMD.LYZ.S: strictly standardized mean difference
Description: (§1) High-throughput screening.

[2] = test system: ISC-enriched organoids; experiment: Primary screen, 384-well 2.5-D organoid differentiation (ENR+CD, 6 days, Target Selective Inhibitor Library, vs whole-plate median): ATP (CellTiter-Glo 3D, CTG); details: for Dose.FC.CTG: FC vs plate median; for SSMD.CTG: strictly standardized mean difference
[3] = test system: ISC-enriched organoids; experiment: Primary screen, 384-well 2.5-D organoid differentiation (ENR+CD, 6 days): basal lysozyme secretion (LYZ.NS); format: cell-based, murine; details: for Dose.FC.LYZ.NS: FC vs plate median; for SSMD.LYZ.NS: strictly standardized mean difference
Description: as §1

[4] = 1st of the 4 dose lines of the treatment (dose not given)
[5] = 2nd of the 4 dose lines of the treatment (dose not given)
[6] = 3rd of the 4 dose lines of the treatment (dose not given)
[7] = 4th of the 4 dose lines of the treatment (dose not given)
[8] = Dose 0.08 uM, primary screen, standard z score
[9] = Dose 0.40 uM, primary screen, standard z score
[10] = Dose 2.00 uM, primary screen, standard z score
[11] = Dose 10.00 uM, primary screen, standard z score
[12] = primary screen, 1st of the 4 dose lines of the treatment (dose not given)
[13] = primary screen, 2nd of the 4 dose lines of the treatment (dose not given)
[14] = primary screen, 3rd of the 4 dose lines of the treatment (dose not given)
[15] = primary screen, 4th of the 4 dose lines of the treatment (dose not given)
[16] = primary screen, dose 0.08 uM, ENR+CD 6 days
[17] = primary screen, dose 0.08 uM, standard z score of FC
[18] = primary screen, dose 0.40 uM, ENR+CD 6 days
[19] = primary screen, dose 0.40 uM, standard z score of FC
[20] = primary screen, dose 2.00 uM, ENR+CD 6 days
[21] = primary screen, dose 2.00 uM, standard z score of FC
[22] = primary screen, dose 10.00 uM, ENR+CD 6 days
[23] = primary screen, dose 10.00 uM, standard z score of FC
[24] = Dose 0.08 uM, standard z score of FC
[25] = Dose 0.40 uM, standard z score of FC
[26] = Dose 2.00 uM, standard z score of FC
[27] = Dose 10.00 uM, standard z score of FC

CC(C)(C)c1cc(C(C)(C)C)c(NC(=O)c2c[nH]c3ccccc3c2=O)cc1O [Ivacaftor (VX-770)]
Dose.FC.LYZ.S ([1]; Dose 0.08 uM): 0.132 log 2 fold change | Dose.FC.LYZ.S ([1]; Dose 0.40 uM): 0.189 log 2 fold change | Dose.FC.LYZ.S ([1]; Dose 2.00 uM): 0.019 log 2 fold change | Dose.FC.LYZ.S ([1]; Dose 10.00 uM): −0.253 log 2 fold change | Z.LYZ.S [1, 4]: 0.853 | Z.LYZ.S [1, 5]: 1.220 | Z.LYZ.S [1, 6]: 0.124 | Z.LYZ.S [1, 7]: −1.636 | SSMD.LYZ.S [1, 4]: 0.705 | SSMD.LYZ.S [1, 5]: 1.209 | SSMD.LYZ.S [1, 6]: 0.148 | SSMD.LYZ.S [1, 7]: −1.350 | Dose.FC.CTG ([2]; Dose 0.08 uM, primary screen): 0.234 log 2 fold change | Z.CTG [2, 8]: 0.558 | Dose.FC.CTG ([2]; Dose 0.40 uM, primary screen): 0.145 log 2 fold change | Z.CTG [2, 9]: 0.347 | Dose.FC.CTG ([2]; Dose 2.00 uM, primary screen): −0.148 log 2 fold change | Z.CTG [2, 10]: −0.354 | Dose.FC.CTG ([2]; Dose 10.00 uM, primary screen): −0.470 log 2 fold change | Z.CTG [2, 11]: −1.123 | SSMD.CTG [2, 12]: 0.431 | SSMD.CTG [2, 13]: 0.280 | SSMD.CTG [2, 14]: −0.331 | SSMD.CTG [2, 15]: −1.317 | Dose.FC.LYZ.NS ([3]; Dose 0.08 uM, primary screen): 0.099 log 2 fold change | Z.LYZ.NS [3, 8]: 0.864 | Dose.FC.LYZ.NS ([3]; Dose 0.40 uM, primary screen): 0.127 log 2 fold change | Z.LYZ.NS [3, 9]: 1.109 | Dose.FC.LYZ.NS ([3]; Dose 2.00 uM, primary screen): 0.082 log 2 fold change | Z.LYZ.NS [3, 10]: 0.717 | Dose.FC.LYZ.NS ([3]; Dose 10.00 uM, primary screen): −0.142 log 2 fold change | Z.LYZ.NS [3, 11]: −1.240 | SSMD.LYZ.NS [3, 12]: 0.882 | SSMD.LYZ.NS [3, 13]: 0.825 | SSMD.LYZ.NS [3, 14]: 0.582 | SSMD.LYZ.NS [3, 15]: −1.167

CCN1CCN(c2ccc(Nc3cc(N(C)C(=O)Nc4c(Cl)c(OC)cc(OC)c4Cl)ncn3)cc2)CC1 [BGJ398 (NVP-BGJ398)]
Dose.FC.LYZ.S ([1]; dose 0.08 uM, ENR+CD 6 days): −0.036 log 2 fold change | Dose.FC.LYZ.S ([1]; dose 0.40 uM, ENR+CD 6 days): 0.002 log 2 fold change | Dose.FC.LYZ.S ([1]; dose 2.00 uM, ENR+CD 6 days): −0.062 log 2 fold change | Dose.FC.LYZ.S ([1]; dose 10.00 uM, ENR+CD 6 days): −0.350 log 2 fold change | Dose.FC.CTG [2, 16]: −0.054 log 2 fold change | Z.CTG [2, 17]: −0.128 | Dose.FC.CTG [2, 18]: 0.026 log 2 fold change | Z.CTG [2, 19]: 0.063 | Dose.FC.CTG [2, 20]: −0.185 log 2 fold change | Z.CTG [2, 21]: −0.442 | Dose.FC.CTG [2, 22]: −1.500 log 2 fold change | Z.CTG [2, 23]: −3.583 | Dose.FC.LYZ.NS [3, 16]: −0.002 log 2 fold change | Z.LYZ.NS [3, 17]: −0.017 | Dose.FC.LYZ.NS [3, 18]: −0.060 log 2 fold change | Z.LYZ.NS [3, 19]: −0.520 | Dose.FC.LYZ.NS [3, 20]: −0.052 log 2 fold change | Z.LYZ.NS [3, 21]: −0.450 | Dose.FC.LYZ.NS [3, 22]: −0.269 log 2 fold change | Z.LYZ.NS [3, 23]: −2.345

CN1C(=O)C(Cc2c[nH]c3ccccc23)NC1=S (stereo not drawn) [Necrostatin-1]
Dose.FC.LYZ.S ([1]; Dose 0.08 uM): 0.077 log 2 fold change | Dose.FC.LYZ.S ([1]; Dose 0.40 uM): 0.038 log 2 fold change | Dose.FC.LYZ.S ([1]; Dose 2.00 uM): 0.092 log 2 fold change | Dose.FC.LYZ.S ([1]; Dose 10.00 uM): 0.229 log 2 fold change | Dose.FC.CTG ([2]; Dose 0.08 uM, primary screen): 0.102 log 2 fold change | Z.CTG [2, 24]: 0.244 | Dose.FC.CTG ([2]; Dose 0.40 uM, primary screen): 0.168 log 2 fold change | Z.CTG [2, 25]: 0.401 | Dose.FC.CTG ([2]; Dose 2.00 uM, primary screen): 0.011 log 2 fold change | Z.CTG [2, 26]: 0.027 | Dose.FC.CTG ([2]; Dose 10.00 uM, primary screen): 0.137 log 2 fold change | Z.CTG [2, 27]: 0.328 | Dose.FC.LYZ.NS ([3]; Dose 0.08 uM, primary screen): 0.060 log 2 fold change | Z.LYZ.NS [3, 24]: 0.524 | Dose.FC.LYZ.NS ([3]; Dose 0.40 uM, primary screen): 0.020 log 2 fold change | Z.LYZ.NS [3, 25]: 0.174 | Dose.FC.LYZ.NS ([3]; Dose 2.00 uM, primary screen): 0.154 log 2 fold change | Z.LYZ.NS [3, 26]: 1.338 | Dose.FC.LYZ.NS ([3]; Dose 10.00 uM, primary screen): 0.057 log 2 fold change | Z.LYZ.NS [3, 27]: 0.496

CNC(=O)[C@H](Cc1ccccc1)NC(=O)[C@H](CC(C)C)[C@H](CSc1cccs1)C(=O)NO [Batimastat (BB-94)]
Dose.FC.LYZ.S ([1]; dose 0.08 uM, ENR+CD 6 days): 0.053 log 2 fold change | Dose.FC.LYZ.S ([1]; dose 0.40 uM, ENR+CD 6 days): 0.028 log 2 fold change | Dose.FC.LYZ.S ([1]; dose 2.00 uM, ENR+CD 6 days): 0.056 log 2 fold change | Dose.FC.LYZ.S ([1]; dose 10.00 uM, ENR+CD 6 days): −0.107 log 2 fold change | Dose.FC.CTG [2, 16]: 0.035 log 2 fold change | Z.CTG [2, 17]: 0.084 | Dose.FC.CTG [2, 18]: −0.095 log 2 fold change | Z.CTG [2, 19]: −0.226 | Dose.FC.CTG [2, 20]: −0.049 log 2 fold change | Z.CTG [2, 21]: −0.117 | Dose.FC.CTG [2, 22]: −0.283 log 2 fold change | Z.CTG [2, 23]: −0.676 | Dose.FC.LYZ.NS [3, 16]: −0.003 log 2 fold change | Z.LYZ.NS [3, 17]: −0.025 | Dose.FC.LYZ.NS [3, 18]: 0.005 log 2 fold change | Z.LYZ.NS [3, 19]: 0.042 | Dose.FC.LYZ.NS [3, 20]: 0.081 log 2 fold change | Z.LYZ.NS [3, 21]: 0.707 | Dose.FC.LYZ.NS [3, 22]: −0.075 log 2 fold change | Z.LYZ.NS [3, 23]: −0.649
